Source: ChEMBL document CHEMBL1201862, “PubChem BioAssay data set” (2004)
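Following 48 hours of exposure in 96-well plates, responses at five concentrations were used to interpolate endpoints linearly. Abbreviation: GI50, concentration required for 50% inhibition of growth.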 The source made the active and inactive calls. No stated cut-off is given here; in the data, active = GI50 up to about 1.1 µM and inactive = higher.

Columns and labels:
Experiment in all cases: NCI-60 cell line screen, 48 h
[1] = system: Hs-578T
[2] = system: HCT-15
[3] = system: SF-295
[4] = system: BT-549
[5] = system: PC-3
[6] = system: RXF 393
[7] = system: NCI-H460
[8] = system: MDA-MB-231
[9] = system: SK-MEL-2
[10] = system: HOP-92
[11] = system: CCRF-CEM
[12] = system: MDA-MB-435
[13] = system: COLO 205
[14] = system: SK-MEL-28
[15] = system: 786-0
[16] = system: NCI-H23
[17] = system: TK-10
[18] = system: OVCAR-8
[19] = system: MDA-N

Row | SMILES | GI50 [1] | GI50 [2] [µM] | GI50 [3] | GI50 [4] | GI50 [5] | GI50 [6] | GI50 [7] | GI50 [8] | GI50 [9] | GI50 [10] | GI50 [11] | GI50 [12] | GI50 [13] | GI50 [14] | GI50 [15] | GI50 [16] | GI50 [17] | GI50 [18] | GI50 [19]
1 | O=c1sc(Nc2ccc3ccccc3c2Cl)nc2ccccc12 | 57.1 µM (inactive) | > 100 | > 100 µM (inactive) | > 100 µM (inactive) | > 100 µM (inactive) | 72.1 µM (inactive) | 60.4 µM (inactive) | > 100 µM (inactive) | > 100 µM (inactive) | 35.9 µM (inactive) | > 100 µM (inactive) | 37.1 µM (inactive) | > 100 µM (inactive) | > 100 µM (inactive) | > 100 µM (inactive) | > 100 µM (inactive) | > 100 µM (inactive) | – | –
2 | Cc1ncc2c(n1)CCC1=C2OS(=O)(=O)CC1N(C)C (stereo not drawn) | > 100 µM (inactive) | – | – | > 100 µM (inactive) | > 100 µM (inactive) | – | > 100 µM (inactive) | > 100 µM (inactive) | – | – | 80.5 µM (inactive) | > 100 µM (inactive) | > 100 µM (inactive) | > 100 µM (inactive) | > 100 µM (inactive) | > 100 µM (inactive) | > 100 µM (inactive) | > 100 µM (inactive) | > 100 µM (inactive)
3 | Cc1ccc(/C=C2\Cc3c(C)cc(C)cc3C2=O)c(C(=O)O)c1 | 35.2 µM (inactive) | 36.3 | 41.9 µM (inactive) | 28.6 µM (inactive) | 41.9 µM (inactive) | 39.9 µM (inactive) | 48.2 µM (inactive) | – | 24.4 µM (inactive) | 36.1 µM (inactive) | 35.1 µM (inactive) | 31.6 µM (inactive) | 34.8 µM (inactive) | 56.2 µM (inactive) | 61.5 µM (inactive) | 55.5 µM (inactive) | 83.4 µM (inactive) | 51.8 µM (inactive) | 89.3 µM (inactive)
4 | COc1ccc(C(=O)/C=C/S/C(=N/C#N)SC)cc1 | 30.9 µM (inactive) | 13.8 | 28 µM (inactive) | – | 33.8 µM (inactive) | 18.2 µM (inactive) | > 100 µM (inactive) | 13.7 µM (inactive) | 20.5 µM (inactive) | 65.5 µM (inactive) | – | 21.5 µM (inactive) | 19.7 µM (inactive) | 30.2 µM (inactive) | 19 µM (inactive) | 16.9 µM (inactive) | 20.8 µM (inactive) | 21 µM (inactive) | –
5 | O=c1ccn(C2OC(COC3CCCCO3)C(OC3CCCCO3)C2OC2CCCCO2)c(=O)n1-c1ccccc1 (stereo not drawn) | > 100 µM (inactive) | > 100 | > 100 µM (inactive) | – | > 100 µM (inactive) | > 100 µM (inactive) | > 100 µM (inactive) | > 100 µM (inactive) | > 100 µM (inactive) | > 100 µM (inactive) | > 100 µM (inactive) | > 100 µM (inactive) | > 100 µM (inactive) | > 100 µM (inactive) | > 100 µM (inactive) | > 100 µM (inactive) | > 100 µM (inactive) | > 100 µM (inactive) | > 100 µM (inactive)
6 | CCCCNC(=O)OCCN=C1c2ccccc2C(Br)C(Br)c2ccccc21 (stereo not drawn) | 36.1 µM (inactive) | 16 | 87.7 µM (inactive) | – | 36.9 µM (inactive) | 14.3 µM (inactive) | 54.6 µM (inactive) | 29.4 µM (inactive) | 42.9 µM (inactive) | 4.46 µM (inactive) | 10.1 µM (inactive) | 21 µM (inactive) | 20.2 µM (inactive) | 35.4 µM (inactive) | 14.6 µM (inactive) | 26.3 µM (inactive) | 25.4 µM (inactive) | 27.6 µM (inactive) | 15.2 µM (inactive)
7 | O=C(Nc1ccn(C2CC(O)C(COC(c3ccccc3)(c3ccccc3)c3ccccc3)O2)c(=O)n1)c1ccccc1 (stereo not drawn) | 2.31 µM (inactive) | 2.59 | 1.96 µM (inactive) | – | 2.43 µM (inactive) | 2.7 µM (inactive) | 2.03 µM (inactive) | 3.05 µM (inactive) | 2.82 µM (inactive) | 1.57 µM (inactive) | 2.79 µM (inactive) | 2.56 µM (inactive) | 2.09 µM (inactive) | 3.08 µM (inactive) | 1.98 µM (inactive) | 1.33 µM (inactive) | – | 1.97 µM (inactive) | 1.96 µM (inactive)
8 | O=c1cnnc2sc(=S)[nH]n12 | 2.22 µM (inactive) | 19.6 | 2.97 µM (inactive) | 14.1 µM (inactive) | 26.7 µM (inactive) | – | 26.7 µM (inactive) | – | > 100 µM (inactive) | – | 2.07 µM (inactive) | 24.7 µM (inactive) | > 100 µM (inactive) | 65.5 µM (inactive) | 22.5 µM (inactive) | – | – | 16.4 µM (inactive) | 36.2 µM (inactive)
9 | OCC1COc2cc(Cl)c(Cl)cc2O1 (stereo not drawn) | > 10 µM (inactive) | > 10 | > 10 µM (inactive) | – | > 10 µM (inactive) | > 10 µM (inactive) | > 10 µM (inactive) | > 10 µM (inactive) | > 10 µM (inactive) | – | > 10 µM (inactive) | > 10 µM (inactive) | > 10 µM (inactive) | > 10 µM (inactive) | – | > 10 µM (inactive) | > 10 µM (inactive) | > 10 µM (inactive) | > 10 µM (inactive)
10 | O=C1OC(=O)c2c1cc1cc3c(cc1c2-c1ccc2c(c1)OCO2)OCO3 | – | > 100 | > 100 µM (inactive) | > 100 µM (inactive) | > 100 µM (inactive) | > 100 µM (inactive) | > 100 µM (inactive) | > 100 µM (inactive) | > 100 µM (inactive) | > 100 µM (inactive) | > 100 µM (inactive) | > 100 µM (inactive) | > 100 µM (inactive) | > 100 µM (inactive) | 22 µM (inactive) | > 100 µM (inactive) | > 100 µM (inactive) | > 100 µM (inactive) | > 100 µM (inactive)
11 | Cc1cc(C)c(S(=O)(=O)N(CCCCCCN)OCCCN)c(C)c1 | 13.8 µM (inactive) | 17.7 | 18.5 µM (inactive) | 17.8 µM (inactive) | 14.6 µM (inactive) | – | 15.6 µM (inactive) | 10.7 µM (inactive) | 20.2 µM (inactive) | 15.7 µM (inactive) | 16.1 µM (inactive) | 62.1 µM (inactive) | 17.3 µM (inactive) | 18.1 µM (inactive) | 16 µM (inactive) | 17.1 µM (inactive) | 15.4 µM (inactive) | 14 µM (inactive) | 17.5 µM (inactive)
12 | CCOC(=O)C(NC(=O)c1cccc(Cl)c1)(Nc1ccc(S(=O)(=O)Nc2cc(C)on2)cc1)C(F)(F)F (stereo not drawn) | > 100 µM (inactive) | > 100 | 14.4 µM (inactive) | – | > 100 µM (inactive) | 42.5 µM (inactive) | > 100 µM (inactive) | > 100 µM (inactive) | > 100 µM (inactive) | > 100 µM (inactive) | > 100 µM (inactive) | > 100 µM (inactive) | > 100 µM (inactive) | > 100 µM (inactive) | > 100 µM (inactive) | > 100 µM (inactive) | > 100 µM (inactive) | > 100 µM (inactive) | > 100 µM (inactive)
13 | COC(CC1(/C=C/O[Si](C(C)C)(C(C)C)C(C)C)C(=O)N(COCC[Si](C)(C)C)c2ccccc21)OC (stereo not drawn) | > 100 µM (inactive) | 36.6 | 7.96 µM (inactive) | – | 22.1 µM (inactive) | 3.9 µM (inactive) | 23.1 µM (inactive) | 21.1 µM (inactive) | 13.3 µM (inactive) | 9.48 µM (inactive) | 13.4 µM (inactive) | 23.2 µM (inactive) | 66.8 µM (inactive) | 16.6 µM (inactive) | 31 µM (inactive) | 25.1 µM (inactive) | 74.8 µM (inactive) | > 100 µM (inactive) | 24.9 µM (inactive)
14 | S=C(N/N=C/c1ccccn1)N1CCCCCC1 | 11.5 µM (inactive) | < 0.01 | 0.124 µM (active) | < 0.01 µM (active) | < 0.01 µM (active) | – | < 0.01 µM (active) | < 0.01 µM (active) | 0.0659 µM (active) | 0.0832 µM (active) | < 0.01 µM (active) | 0.148 µM (active) | < 0.01 µM (active) | 0.215 µM (active) | < 0.01 µM (active) | < 0.01 µM (active) | 0.0101 µM (active) | < 0.01 µM (active) | 0.0773 µM (active)
15 | COc1ccc(CC2(O)C3CC4CCC2C4C3)cc1 (stereo not drawn) | 85.3 µM (inactive) | > 100 | 42.6 µM (inactive) | 36.6 µM (inactive) | 39.2 µM (inactive) | – | 68.5 µM (inactive) | – | > 100 µM (inactive) | 58.5 µM (inactive) | 42 µM (inactive) | > 100 µM (inactive) | 74.3 µM (inactive) | > 100 µM (inactive) | > 100 µM (inactive) | 64.4 µM (inactive) | 69.3 µM (inactive) | > 100 µM (inactive) | –
16 | COc1cc(/C=C/C(=O)CC(=O)/C=C/c2ccc(O)c(OC)c2)ccc1O [CURCUMIN] | 10.9 µM (inactive) | 4.12 | 8.04 µM (inactive) | 4.97 µM (inactive) | 8.79 µM (inactive) | 3 µM (inactive) | 8.07 µM (inactive) | 17.8 µM (inactive) | 16.5 µM (inactive) | – | 3.03 µM (inactive) | 2.98 µM (inactive) | 13.5 µM (inactive) | 4.5 µM (inactive) | 3.33 µM (inactive) | 5.6 µM (inactive) | 14.2 µM (inactive) | 7.35 µM (inactive) | –
17 | CCOc1cc(C=O)ccc1O [ETHYL VANILLIN] | > 100 µM (inactive) | > 100 | > 100 µM (inactive) | – | > 100 µM (inactive) | – | > 100 µM (inactive) | > 100 µM (inactive) | > 100 µM (inactive) | > 100 µM (inactive) | > 10 µM (inactive) | > 100 µM (inactive) | > 100 µM (inactive) | > 100 µM (inactive) | > 100 µM (inactive) | > 100 µM (inactive) | > 100 µM (inactive) | > 100 µM (inactive) | > 100 µM (inactive)
